The text below walks through data of US4849428A, “Cyclic anti-inflammatory derivatives of di-tert-butylphenol compounds, compositions and use” (The Procter & Gamble Company, priority 1987, dated 1989).

In experiment [1] the test system is Carrageenan Rat Paw Edema. Briefly: Carrageenan Rat Paw Edema Test. In kind it is in vivo, Male Sprague-Dawley rats. Particulars: for Percent Inhibition at 100 mg/kg dose p.o.: 100 mg/kg p.o. 1 h before carrageenan, paw volume 4 h after carrageenan, relative to control; for ED35: oral, by regression analysis, read-out: ID35. As for the experimental part: Carrageenan Rat Paw Edema Test
Male Sprague-Dawley rats (Charles River Laboratories) are weighed and food fasted overnight. The animals are then divided into four to six groups of six animals each according to body weights (average about 145 g) so that each group has about the same average body weight (within 10 g).
The following morning animals are dosed with the test compound and then placed in individual cages. For oral dosing, the drug is suspended in 0.5% methyl cellulose with 2% Tween 80, and delivered via stomach tube in a 5 ml volume.
Paw volumes (0 time) are determined on both hind paws with a mercury displacement device equipped with a transducer and digitizer. One hour after dosing the test compound, the animals are placed in a plastic restrainer and 50 ul of a 1% (w/w) carrageenan solution in 0.9% saline is injected into the ventral surface of the left rear paw. Four hours after the carrageenan injection, the paw volumes are again determined.
The results are expressed as percent inhibition of the mean paw volume of the test group relative to the control group. Statistical differences are determined by one way analysis of variance. ID35 values are determined by regression analysis.
(In general: Carrageenan injected into the paw causes an acute inflammation.)

For experiment [2], the system named is rheumatoid arthritis. As to the kind of experiment: Oral tablets in patients with rheumatoid arthritis. In kind it is in vivo, patient. Particulars: tablet, orally two times daily. As for the experimental part:
(§1) Tablets are prepared by conventional methods, such as mixing and direct compaction, formulated as follows: […]

The test system of experiment [3] is osteoarthritis. As to the kind of experiment: Oral tablets in patients with osteoarthritis. The class given is in vivo, patient. The settings on record: tablet, twice daily. Here is the method: as §1
Experiment [4] has as its system rheumatoid arthritis or osteoarthritis. As to the kind of experiment: Oral capsules in patients with rheumatoid arthritis or osteoarthritis. The class given is in vivo, patient. Particulars: capsule, orally once a day. As for the experimental part: Capsules are prepared by conventional methods, comprised as follows: […]

In the case of `C#CCCCC(=O)c1cc(C(C)(C)C)c2c(c1)C(C)(C)C(O)O2` (stereo not drawn) [Compound 13C], in experiment [1], the “Percent Inhibition at 100 mg/kg dose p.o.” value is 53.2% and the ED35 was 12.9 mg/kg.

In the case of `C#CC(O)CCC(=O)c1cc(C(C)(C)C)c2c(c1)C(C)(C)CO2` (stereo not drawn) [Compound 8D], in experiment [1], the “Percent Inhibition at 100 mg/kg dose p.o.” value stood at 60.8% and the ED35 amounted to 1.6 mg/kg.

With `C#CCCCC(=O)c1cc(C(C)(C)C)c2c(c1)C(C)(C)CO2` [Compound 8C], in experiment [1], the “Percent Inhibition at 100 mg/kg dose p.o.” value is listed as 48.8% and the ED35 was 2.4 mg/kg. The “reduction of inflammation in rheumatoid arthritis patient” value in experiment [2] is “significantly reduces the inflammation”. In addition, the “benefit in osteoarthritis patient” value in experiment [3] is recorded as “significant benefit”. For the same compound, in experiment [4], the “reduction of symptomology in rheumatoid arthritis or osteoarthritis patient” value is reported as “substantially reduces the symptomology”.
